For this data set the following is noted: for aqueous solubility: pH 6.8.

What is called aqueous solubility is the dissolved amount per volume that the medium holds.

≈ marks a conversion by molar mass, not a printed value.

With `Cc1ccc(CNc2ncnn2C)nc1`, the MDR1-MDCK efflux ratio is 0.685; the intrinsic clearance, human liver microsomes is at most 4.74 mL/min/kg; the intrinsic clearance, rat liver microsomes was at most 10.7 mL/min/kg.

In the case of `CCn1nc(CNC(=O)C2CCOCC2)c2ccccc21`, the MDR1-MDCK efflux ratio came to 2.83; the intrinsic clearance, human liver microsomes is at most 4.74 mL/min/kg; the intrinsic clearance, rat liver microsomes amounted to 112 mL/min/kg.

On to `CCC(=O)N1CCCc2cc(C(O)CN3CCN(c4ccc(OC)cc4)CC3)ccc21` (configuration not stated), for which the MDR1-MDCK efflux ratio came out at 1.69; the intrinsic clearance, human liver microsomes is 167 mL/min/kg; the intrinsic clearance, rat liver microsomes was 283 mL/min/kg; the aqueous solubility came to 70 µg/mL (≈ 165 µM).

`Cc1cc(C)c2c(N(C)CCC(C)C)ncnc2n1`: the MDR1-MDCK efflux ratio stood at 0.862; the intrinsic clearance, human liver microsomes was found to be 14.3 mL/min/kg; the intrinsic clearance, rat liver microsomes was determined as 1220 mL/min/kg; the aqueous solubility amounted to 37.5 µg/mL (≈ 145 µM).

On to `O=C1CCCc2c1[nH]c1cc(-n3ccnc3-c3ccncc3)ccc21`, for which the MDR1-MDCK efflux ratio came to 14.5; the intrinsic clearance, human liver microsomes worked out at 26.7 mL/min/kg; the intrinsic clearance, rat liver microsomes stood at 187 mL/min/kg; the aqueous solubility came to 6.53 µg/mL (≈ 19.9 µM).

With `Cc1ccc2c(CC(=O)NCc3cccs3)coc2c1`, the MDR1-MDCK efflux ratio turned out to be 0.547; the intrinsic clearance, human liver microsomes came out at 122 mL/min/kg; the intrinsic clearance, rat liver microsomes was 2520 mL/min/kg; the aqueous solubility amounted to 6.12 µg/mL (≈ 21.4 µM).

In the case of `COCCc1nc(-c2ccccc2-c2ccccc2)n(CCO)n1`, the MDR1-MDCK efflux ratio turned out to be 15.9; the intrinsic clearance, human liver microsomes was determined as 24.5 mL/min/kg; the intrinsic clearance, rat liver microsomes was 182 mL/min/kg; the aqueous solubility was 26.4 µg/mL (≈ 81.6 µM).

In the case of `C[C@H]1CN2C[C@H](O)C[C@@H]2CN1Cc1cccc2ccccc12`, the MDR1-MDCK efflux ratio stood at 1.69; the intrinsic clearance, human liver microsomes came to 24.2 mL/min/kg; the intrinsic clearance, rat liver microsomes came to 1910 mL/min/kg.

Molecule `COCc1cccc(NC(=O)c2cn(C)c3ccccc23)c1` gave an aqueous solubility of 3.71 µg/mL (≈ 12.6 µM).

For the molecule `CN(CCOc1ccccc1)CC(=O)NCCc1ccccc1`, the MDR1-MDCK efflux ratio was 0.728; the intrinsic clearance, human liver microsomes amounted to 267 mL/min/kg; the intrinsic clearance, rat liver microsomes turned out to be 5420 mL/min/kg.

On to `Cc1nnc(-c2ccc(N3CCC(Oc4cc(F)ccc4Cl)CC3)nn2)o1`, for which the MDR1-MDCK efflux ratio amounted to 0.65; the fraction unbound, human plasma was 0.0145; the intrinsic clearance, human liver microsomes was at most 4.74 mL/min/kg.

Turning to `CCc1nc(C(N)=O)c(Nc2ccc(N3CCC(N4CCN(C)CC4)CC3)c(OC)c2)nc1NC1CCOCC1`, the MDR1-MDCK efflux ratio turned out to be 133; the intrinsic clearance, human liver microsomes is 15 mL/min/kg; the intrinsic clearance, rat liver microsomes came to 14.7 mL/min/kg; the aqueous solubility was 36.3 µg/mL (≈ 65.7 µM).

For `COc1ccc(CN2CCC(c3nc(C(C)C)no3)CC2)c(F)c1`, the MDR1-MDCK efflux ratio turned out to be 0.777; the intrinsic clearance, human liver microsomes was found to be 35 mL/min/kg; the intrinsic clearance, rat liver microsomes was determined as 1710 mL/min/kg; the aqueous solubility turned out to be 47.1 µg/mL (≈ 141 µM).

Molecule `CC(=O)n1c(/C=C2/N=C(c3ccc(F)cc3)OC2=O)cc2ccccc21` yielded an intrinsic clearance, human liver microsomes of 109 mL/min/kg; an intrinsic clearance, rat liver microsomes of 144 mL/min/kg; an aqueous solubility of 5.43 µg/mL (≈ 15.6 µM).

Turning to `NS(=O)(=O)C#Cc1ccccc1`, the intrinsic clearance, human liver microsomes came out at 10.6 mL/min/kg and the intrinsic clearance, rat liver microsomes is at most 10.7 mL/min/kg.

As for `COc1cc(CNc2nc3ccccc3nc2C)ccn1`, the MDR1-MDCK efflux ratio was 0.664; the intrinsic clearance, human liver microsomes was determined as 11 mL/min/kg; the intrinsic clearance, rat liver microsomes stood at 124 mL/min/kg; the aqueous solubility was 26.8 µg/mL (≈ 95.7 µM).

Regarding `CC(C)[C@H](Nc1ncc(Cl)cn1)C(=O)N1CCCC1`, the MDR1-MDCK efflux ratio was 1.08; the intrinsic clearance, human liver microsomes worked out at 15.4 mL/min/kg; the intrinsic clearance, rat liver microsomes stood at 181 mL/min/kg; the aqueous solubility came out at 36.2 µg/mL (≈ 128 µM).

With `CCCn1ncc2[nH]c(-c3cc(Cn4cncn4)c(C)cc3C)nc21`, the MDR1-MDCK efflux ratio worked out at 90.9; the intrinsic clearance, human liver microsomes was 51.7 mL/min/kg; the intrinsic clearance, rat liver microsomes was 199 mL/min/kg; the aqueous solubility came out at 33.6 µg/mL (≈ 100 µM).

For `CN(C)Cc1csc(-c2nccn2-c2ccc3c(c2)n(C)c(=O)n3C)c1`, the MDR1-MDCK efflux ratio is 72.5; the intrinsic clearance, human liver microsomes was at most 4.74 mL/min/kg; the intrinsic clearance, rat liver microsomes was 38.2 mL/min/kg; the aqueous solubility amounted to 31.4 µg/mL (≈ 85.6 µM).

With `Cc1nccn1-c1ccc(F)cc1CNC(=O)C(C)C`, the MDR1-MDCK efflux ratio was 22.2; the intrinsic clearance, human liver microsomes is 8.38 mL/min/kg; the intrinsic clearance, rat liver microsomes was found to be 57.2 mL/min/kg; the aqueous solubility is 59.4 µg/mL (≈ 216 µM).

For the molecule `Cc1cccc(N(C)C(=O)COC2CCCC2)n1`, the MDR1-MDCK efflux ratio came out at 0.667; the intrinsic clearance, human liver microsomes amounted to 44.8 mL/min/kg; the intrinsic clearance, rat liver microsomes was determined as 200 mL/min/kg; the aqueous solubility is 59.6 µg/mL (≈ 240 µM).

Take `Cc1cc(N(C)C)nc(-n2ccnc2)n1`: the MDR1-MDCK efflux ratio came to 0.704; the intrinsic clearance, human liver microsomes came out at 39.7 mL/min/kg; the intrinsic clearance, rat liver microsomes stood at 83.1 mL/min/kg; the aqueous solubility is 28.5 µg/mL (≈ 140 µM).

On to `Cc1c(C(=O)Nc2ccc(N3C[C@@H](C)O[C@H](C)C3)nc2)cccc1-c1ccc(OC(F)(F)F)cc1`, for which the MDR1-MDCK efflux ratio came out at 1.16; the intrinsic clearance, human liver microsomes was determined as 24 mL/min/kg; the intrinsic clearance, rat liver microsomes worked out at 74.9 mL/min/kg.

In the case of `COc1ccc([C@H]2c3[nH]c4ccc(Cl)cc4c3CCN2C(=O)Oc2ccc(Cl)cc2)cc1`, the MDR1-MDCK efflux ratio worked out at 0.432; the fraction unbound, human plasma worked out at 0.326; the fraction unbound, rat plasma stood at 0.568; the aqueous solubility worked out at 0.1 µg/mL (≈ 0.214 µM).

On to `CSc1ccc(-c2ccc3n(c2=O)C[C@H]2C[C@@H]3CN(C(=O)c3ccncc3)C2)cc1`, for which the MDR1-MDCK efflux ratio was determined as 44; the intrinsic clearance, human liver microsomes came to 54 mL/min/kg; the intrinsic clearance, rat liver microsomes came out at 357 mL/min/kg; the aqueous solubility is 37.5 µg/mL (≈ 89.8 µM).

Take `Cc1noc(C2CCN(CC(N)=O)CC2)n1`: the intrinsic clearance, human liver microsomes is 9.99 mL/min/kg; the intrinsic clearance, rat liver microsomes is 29.7 mL/min/kg; the aqueous solubility came out at 30.8 µg/mL (≈ 137 µM).

In turn, `O=C(C1CCCN(C(=O)N2CCCC2)C1)N1CCc2ccccc2C1` (configuration not stated) yielded an intrinsic clearance, human liver microsomes of 87.1 mL/min/kg; an intrinsic clearance, rat liver microsomes of 1010 mL/min/kg; an aqueous solubility of 57.4 µg/mL (≈ 168 µM).

As to `Cc1ccc(NS(C)(=O)=O)c(C(=O)N(C)c2ccc3ccccc3c2)c1`, the MDR1-MDCK efflux ratio was 1.8; the intrinsic clearance, human liver microsomes was 12.4 mL/min/kg; the intrinsic clearance, rat liver microsomes is 1100 mL/min/kg; the aqueous solubility amounted to 54.4 µg/mL (≈ 148 µM).

The molecule `CCn1nccc1-c1n[nH]c(=O)n1Cc1ccccc1` displayed an aqueous solubility of 27 µg/mL (≈ 100 µM).

Take `Cc1nc(CS(C)(=O)=O)sc1C(=O)Nc1ccccc1`: the intrinsic clearance, human liver microsomes is at most 4.74 mL/min/kg and the intrinsic clearance, rat liver microsomes is at most 10.7 mL/min/kg.

Regarding `CC(=O)c1cnc2ccc(-c3cc(Cl)c(O)c(Cl)c3)nc2c1N[C@H]1CC[C@H](CN(C)C)CC1`, the MDR1-MDCK efflux ratio stood at 21.9 and the aqueous solubility is 0.3 µg/mL (≈ 0.615 µM).

Consider `O=C(CCn1ccc2ccccc21)N1CCC(n2c(=O)[nH]c3ccccc32)CC1`, for which the intrinsic clearance, human liver microsomes was determined as 269 mL/min/kg and the intrinsic clearance, rat liver microsomes amounted to 5450 mL/min/kg.

Molecule `Cc1ccc(C)c(CN2C(=O)C(=O)N(CC(C)C)C2=O)c1` displayed an aqueous solubility of 1.75 µg/mL (≈ 6.07 µM).

On to `COc1cccc(S(=O)(=O)N2CCOC(c3c(C(N)=O)sc4ncccc34)C2)c1` (configuration not stated), for which the MDR1-MDCK efflux ratio came to 38.2.

With `Cc1c(F)cccc1NC(=O)CN1[C@H](Cc2ccccc2)C[C@]2(C)NC(=O)CCC[C@H]12`, the MDR1-MDCK efflux ratio was found to be 12.4; the fraction unbound, human plasma was 0.0394; the fraction unbound, rat plasma amounted to 0.0842; the intrinsic clearance, human liver microsomes was determined as 267 mL/min/kg. This molecule had an intrinsic clearance, rat liver microsomes of 1090 mL/min/kg.

As to `O[C@@H]1C[C@@H](c2nc(-c3cccnc3)no2)N(CCCc2ccccc2)C1`, the MDR1-MDCK efflux ratio came to 1.19; the intrinsic clearance, human liver microsomes came out at 108 mL/min/kg; the intrinsic clearance, rat liver microsomes is 1900 mL/min/kg; the aqueous solubility was 45.6 µg/mL (≈ 130 µM).

Turning to `Cc1cc(C)c(C#N)c(N2CCN(CC(=O)Nc3ccccc3Cl)CC2)n1`, the MDR1-MDCK efflux ratio is 0.804; the intrinsic clearance, human liver microsomes came out at 125 mL/min/kg; the intrinsic clearance, rat liver microsomes amounted to 804 mL/min/kg; the aqueous solubility is 1.09 µg/mL (≈ 2.84 µM).

For `COc1ccccc1C(=O)Nc1ccc2cc[nH]c2c1`, the MDR1-MDCK efflux ratio is 0.247; the fraction unbound, human plasma stood at 0.032; the fraction unbound, rat plasma came to 0.0373; the intrinsic clearance, human liver microsomes came to 84.8 mL/min/kg. In addition, the intrinsic clearance, rat liver microsomes was determined as 491 mL/min/kg and the aqueous solubility was found to be 4.9 µg/mL (≈ 18.4 µM).

Molecule `O=C(NC1CCCCC1)N1CCc2nc3ccccn3c(=O)c2C1` yielded an intrinsic clearance, human liver microsomes of at most 4.74 mL/min/kg; an intrinsic clearance, rat liver microsomes of 123 mL/min/kg; an aqueous solubility of 50 µg/mL (≈ 153 µM).

As to `Cc1nc([C@H]2CC[C@H](CNC(=O)CN3CCC(c4ccccc4)CC3)CC2)ccc1C(N)=O`, the MDR1-MDCK efflux ratio amounted to 14.9; the intrinsic clearance, human liver microsomes was 37.3 mL/min/kg; the intrinsic clearance, rat liver microsomes came out at 390 mL/min/kg; the aqueous solubility is 70.2 µg/mL (≈ 156 µM).

`NC(=O)COc1ccccc1C(=O)Nc1cccc(-c2ccc3ccccc3c2)n1`: the MDR1-MDCK efflux ratio was determined as 0.296; the intrinsic clearance, human liver microsomes came to 54.8 mL/min/kg; the intrinsic clearance, rat liver microsomes amounted to 1060 mL/min/kg.

With `CN(C)S(=O)(=O)N(C1CCCC1)C1CC1`, the aqueous solubility is 32.6 µg/mL (≈ 140 µM).

For the molecule `CCc1noc(COc2c(C)ccnc2Cl)n1`, the aqueous solubility was 23.3 µg/mL (≈ 91.8 µM).

On to `Cc1nc(CN2C(=O)CN(C3CCCC3)C2=O)nc2ccccc12`, for which the MDR1-MDCK efflux ratio was found to be 1.54; the intrinsic clearance, human liver microsomes was at most 4.74 mL/min/kg; the intrinsic clearance, rat liver microsomes stood at 823 mL/min/kg; the aqueous solubility came out at 43 µg/mL (≈ 132 µM).

As for `Cc1oc(C)c(C(=O)N(C)Cc2ccccc2N2CCOCC2)c1C`, the MDR1-MDCK efflux ratio turned out to be 1.58; the intrinsic clearance, human liver microsomes turned out to be 916 mL/min/kg; the intrinsic clearance, rat liver microsomes came to 5800 mL/min/kg; the aqueous solubility was 61.8 µg/mL (≈ 180 µM).

Molecule `O=C(c1cc(-c2ccccc2)[nH]n1)N1CCc2ccccc21` registered an aqueous solubility of 0.84 µg/mL (≈ 2.9 µM).

The values are drawn from the Biogen ADME set (Fang et al. 2023).
